Laboratory results published in US20100285139A1, “PHARMACEUTICAL COMPOSITION FOR THE PROPHYLAXIS AND/OR SYMPTOMATIC TREATMENT OF CYSTIC FIBROSIS” (CYCNAD GMBH & CO., KG, priority 2007, published 2010).

System: ceramide
Test: Pulmonary ceramide concentration in lung extracts of treated mice
Assay type: in vivo
Experimental: The inhalation was carried out with the aid of an inhaler (Pariboy® SX). The liquid reservoir in this inhaler was connected to an air nozzle, whereby it was possible to produce a fine aerosol which was inhaled through a mask by the mice. For this, the noses of the experimental animals were pressed manually into the opening of the mask for 10 minutes. This permitted excellent control of the inhalation process. All mice were subjected to an inhalation process 3 times at an interval of 12 hours.
After killing the experimental animals, the lungs were removed, homogenized under liquid nitrogen and added to a mixture of chloroform, methanol and 1N hydrochloric acid (100:100:1, v/v/v). After addition of 200 μl of H2O, the samples were centrifuged for 5 minutes (14,000 rpm, rotations per minute). The lower phase was then collected, dried and subjected to an alkaline hydrolysis of diacylglycerol in 0.1 N methanolic potassium hydroxide solution at 37° C. for 60 minutes. The samples were extracted again, and the lower phase was dried and subsequently resuspended in 20 μl of a detergent solution (7.5% (w/v) of n-octylglucopyranoside, 5 mM cardiolipin in 1 mM diethylenetriaminepentaacetic acid (DTPA)). After an ultrasound treatment (10 minutes), the samples were added to 70 μl of a reaction mixture which contained 10 μl of diacylglycerol kinase (GE Healthcare Europe, Munich, Germany), 0.1 M imidazole/HCl (pH 6.6), 0.2 mM diethylenetriaminepentaacetic acid (pH 6.6), 70 mM sodium chloride, 17 mM magnesium chloride, 1.4 mM EGTA, 2 mM DTT, 1 μM ATP and 10 μCi of [^32P]γATP. The kinase reaction was carried out for 30 minutes at room temperature and subsequently ended by addition of 1 ml of chloroform:methanol:1 N HCl (100:100:1, v/v/v), 170 μl of buffered saline solution (135 mM sodium chloride, 1.5 mM calcium chloride, 0.5 mM magnesium chloride, 5.6 mM glucose, 10 mM HEPES, pH 7.2) and 30 μl of a 100 mM EDTA solution. The samples were then vortexed and the resulting phases were separated. […] The incorporation of [^32P] in ceramide was quantified by means of liquid scintillation counting, since the spots […]. The amounts of ceramide were determined by comparison with a standard curve using C16-ceramide as substrate.
Wild-type mice and Cftr-deficient mice were inhaled with a solution of 4 mg/l of amitriptyline, 12.5 mg/l of trimipramine, 9 mg/l of desipramine, 8 mg/l of chlorprothixene, 4.5 mg/l of fluoxetine, 5 mg/l of amlodipine and 35 mg/l of sertraline. […] The lungs were removed from the experimental animals 60 minutes after the inhalation, and the pulmonary ceramide concentration in the lung extracts was determined. […]

SMILES: CN(C)CCC=C1c2ccccc2CCc2ccccc21 [amitriptyline]
- ceramide concentration in lung extracts (Cftr-deficient mice, 12 h after inhalation of 1 ml amitriptyline solution (4 mg/l)): 5.2±0.79 pmol/μg of protein
- ceramide concentration in lung extracts (Cftr-deficient mice, parenterally treated, 12 h after intraperitoneal injection of 250 micrograms): 4.9±0.7 pmol/μg of protein
- ceramide concentration in lung extracts (wild-type mice, 12 h after inhalation of 1 ml amitriptyline solution (4 mg/l)): 1.6±0.3 pmol/μg of protein
- ceramide concentration in lung extracts (wild-type mice, parenterally treated, 12 h after intraperitoneal injection of 250 micrograms): 1.5±0.4 pmol/μg of protein
